The text below walks through data of US5229123A, “Antifungal agents” (Hoffmann-La Roche Inc., priority 1991, dated 1993).

Like-named read-outs stand apart in the source and are kept apart here. Where only a bound is given, the exact number is not on record here.

In data set [1] the target is chitin synthase 1 (Chs 1) (Saccharomyces cerevisiae, UniProt P08004). Particulars: literature, E. Cabib 1991; cited from earlier work.
The target of the next data set is T1, Chs 2 (Saccharomyces cerevisiae, UniProt P14180).
T1 construct: digitonin-permeabilized, trypsin-treated cells
As to the kind of experiment: Inhibitory activity against Chs 2 (chitin formation from [14C]-UDP-N-acetylglucosamine in permeabilized overproducer cells). The class given is biochemical. As for the experimental part: (§1) Inhibitory activity of Xanthofulvin against Chs 1 and Chs 2 from Saccharomyces cerevisiae was measured respectively.
(§2) The overproducer employed for Chs 1 was Saccharomyces cerevisiae (ura3) harbouring plasmid (CHSl, URA3). The cells were permeabilized with 0.5% digitonin for 15 min at 30° C., followed by treatment with trypsin at the final concentration of 100 μg/ml for 15 min at 30° C. After addition of trypsin inhibitor from soybean, 50 μl of 2.5×10^7 cells/ml was incubated for 1 hr at 30° C. with 40 μl of assay solution containing 50 mM MES pH 6.5, 5 mM Mg(OAc)2, 32 mM N-acetylglucosamine and 0.1 mM [^14 C]-UDP-N-acetylglucosamine, and 10 μl of sample solution. Reaction was terminated with addition of TCA and cells are collected on the filter and washed with 70% aqueous ethanol containing 0.3M acetic acid. Radioactivity of cells is counted with a liquid scientillation counter. Amount of chitin formed was determined on the basis of radioactivity incorporated into the cells (S. J. Silverman, A. Sburlati, M. J. Slater and E. Cabib. Proc. Natl. Acad. Sci. USA, 85, 4735-4739 (1988)).
Overproducer for Chs 2 was a Saccharomyces cerevisiae strain of disrupted Chs 1 gene (chs1:: URA3, leu2 ) with plasmid (CHS2, LEU2). Assay method was the same as the one for Chs 1 described above except for assay solution. Assay solution for Chs 2 contained 30 mM Tris (pH 7.5), 2.5 mM Co(OAc)2, 32 mM N-acetylglucosamine and 0.1 mM [^14 C]-UDP-N-acetylglucosamine (See: Silverman et al. supra).

The target of a further data set is T2, Chs 1 (Saccharomyces cerevisiae, UniProt P08004).
T2 sequence (P08004 1-1131): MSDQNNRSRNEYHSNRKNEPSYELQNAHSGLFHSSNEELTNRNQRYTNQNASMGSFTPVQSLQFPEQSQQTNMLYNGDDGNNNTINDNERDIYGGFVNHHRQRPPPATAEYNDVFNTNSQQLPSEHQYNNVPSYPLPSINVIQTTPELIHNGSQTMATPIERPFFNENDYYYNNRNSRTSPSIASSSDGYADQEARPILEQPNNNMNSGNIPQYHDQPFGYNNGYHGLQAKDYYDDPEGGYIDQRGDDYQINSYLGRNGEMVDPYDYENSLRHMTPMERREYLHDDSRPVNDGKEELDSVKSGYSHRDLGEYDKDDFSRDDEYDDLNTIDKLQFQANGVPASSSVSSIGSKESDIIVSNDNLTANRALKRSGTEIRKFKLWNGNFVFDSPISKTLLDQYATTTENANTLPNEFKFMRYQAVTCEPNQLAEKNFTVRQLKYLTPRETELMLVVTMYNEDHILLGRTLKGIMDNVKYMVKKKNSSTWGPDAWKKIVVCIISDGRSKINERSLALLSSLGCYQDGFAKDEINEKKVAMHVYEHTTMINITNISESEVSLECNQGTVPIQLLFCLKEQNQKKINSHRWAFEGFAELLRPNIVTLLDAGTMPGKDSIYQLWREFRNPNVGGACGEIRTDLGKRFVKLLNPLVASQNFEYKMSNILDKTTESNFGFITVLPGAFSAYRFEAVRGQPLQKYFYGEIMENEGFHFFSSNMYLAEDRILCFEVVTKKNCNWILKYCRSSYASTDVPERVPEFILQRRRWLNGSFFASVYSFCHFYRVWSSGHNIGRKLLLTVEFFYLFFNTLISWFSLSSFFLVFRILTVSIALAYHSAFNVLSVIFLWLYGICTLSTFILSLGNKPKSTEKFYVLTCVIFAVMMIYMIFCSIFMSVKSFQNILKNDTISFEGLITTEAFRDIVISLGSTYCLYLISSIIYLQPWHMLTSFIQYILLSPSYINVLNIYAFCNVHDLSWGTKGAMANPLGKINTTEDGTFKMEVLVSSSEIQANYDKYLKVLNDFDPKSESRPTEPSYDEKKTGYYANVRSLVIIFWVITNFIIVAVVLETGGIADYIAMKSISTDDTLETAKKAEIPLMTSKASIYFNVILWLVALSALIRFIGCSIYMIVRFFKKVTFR
As to the kind of experiment: Inhibitory activity against Chs 1 (chitin formation from [14C]-UDP-N-acetylglucosamine in permeabilized overproducer cells). The class given is biochemical. As for the experimental part: as §1, §2

A further data set in a line: Acute toxicity. The note with it: in vivo.
Data set [2] can be described thus: Solubility (physico-chemical properties). It counts as physicochemical. The text has this: The physico-chemical properties of Xanthofulvin obtained as described in the Example given hereinbelow are as follows: […]

Usually IC50 stands for the concentration at which inhibition is half-maximal.

T1 sequence (P14180 whole entry): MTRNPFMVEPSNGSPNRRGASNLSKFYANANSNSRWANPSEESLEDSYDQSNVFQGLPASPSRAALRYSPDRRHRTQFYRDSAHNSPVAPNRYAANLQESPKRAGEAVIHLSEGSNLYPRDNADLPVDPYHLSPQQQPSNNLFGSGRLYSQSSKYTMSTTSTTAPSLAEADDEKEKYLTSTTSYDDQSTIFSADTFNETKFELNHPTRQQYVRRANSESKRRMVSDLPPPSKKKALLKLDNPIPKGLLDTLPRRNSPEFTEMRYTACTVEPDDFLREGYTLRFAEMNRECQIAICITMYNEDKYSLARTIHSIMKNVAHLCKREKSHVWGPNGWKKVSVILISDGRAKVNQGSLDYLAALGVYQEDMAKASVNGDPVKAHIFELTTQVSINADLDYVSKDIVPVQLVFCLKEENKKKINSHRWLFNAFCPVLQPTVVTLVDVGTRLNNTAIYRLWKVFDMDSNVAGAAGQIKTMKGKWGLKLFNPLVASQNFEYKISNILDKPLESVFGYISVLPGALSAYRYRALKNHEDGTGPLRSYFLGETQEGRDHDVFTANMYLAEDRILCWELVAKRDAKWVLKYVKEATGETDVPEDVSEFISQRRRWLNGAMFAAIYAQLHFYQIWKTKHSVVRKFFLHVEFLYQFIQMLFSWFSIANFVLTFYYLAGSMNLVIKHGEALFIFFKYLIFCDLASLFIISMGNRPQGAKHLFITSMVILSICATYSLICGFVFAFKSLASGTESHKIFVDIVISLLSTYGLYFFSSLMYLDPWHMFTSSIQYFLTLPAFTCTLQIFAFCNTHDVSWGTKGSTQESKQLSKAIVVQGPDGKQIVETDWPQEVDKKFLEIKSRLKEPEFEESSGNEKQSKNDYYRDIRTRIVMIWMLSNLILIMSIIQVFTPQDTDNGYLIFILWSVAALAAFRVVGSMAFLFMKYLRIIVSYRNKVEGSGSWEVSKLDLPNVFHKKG

For `C[C@@H]([C@H](N)C(=O)N[C@H](C(=O)O)[C@H]1OC(n2cc(C=O)nc2O)[C@H](O)[C@@H]1O)[C@H](O)c1ccc(O)cn1` (stereo partly drawn) [nikkomycin X], the “Inhibition of chitin synthase 1 versus Chs 2 (in words)” value in data set [1] is on record as “inhibit chitin synthase 1 (Chs 1) rather than Chs 2”.

`NC(=O)OC[C@H](O)[C@@H](O)[C@H](N)C(=O)N[C@H](C(=O)O)[C@H]1O[C@@H](n2cc(C(=O)O)c(=O)[nH]c2=O)[C@H](O)[C@@H]1O` [polyoxin D, reference compound]: the figures for the IC50 against Chs 2 and at Chs 1 were 10300 nM and 260 nM, respectively. In addition, the “Inhibition of chitin synthase 1 versus Chs 2 (in words)” value in data set [1] is “inhibit chitin synthase 1 (Chs 1) rather than Chs 2”.

Consider `CC(=O)c1c(C)c(/C(O)=C2\COc3cc(O)c(O)c(C(=O)O)c3C2=O)cc2c(=O)c3c(C(=O)O)c(O)c(O)cc3oc12` [Xanthofulvin], for which the IC50 was 2200 nM on Chs 2 (Chs 2 overproducer, Tris pH 7.5, Co(OAc)2, read-out: IC50 Chs 2) and more than 200000 nM at Chs 1 (Chs 1 overproducer, MES pH 6.5, Mg(OAc)2, 1 hr at 30° C., read-out: IC50 Chs 1). Besides, the “Chs 2 inhibiting activity (in words)” value on Chs 2 (summary of Table 1) is on record as “high Chs 2 inhibiting activity”. The Acute toxicity result in “Acute toxicity” is given as “not observed”. In addition, the Solubility entry in data set [2] (in DMSO) is given as “Soluble”; in data set [2] (in H2O), “Slightly soluble”; in data set [2] (in MeOH), “Soluble”; in data set [2] (in n-hexane), “Insoluble”.
